In patent US10611750B2, “Tetrahydroquinoline compositions as bet bromodomain inhibitors” (FORMA Therapeutics, Inc., priority 2013, dated 2020):

Key:
[1] = molecular target: T1, BRD4 Bromodomain 2 (BRD4 BD2) (Homo sapiens, UniProt O60885); test: AlphaScreen binding assay, BRD4 BD2; conditions: His-tagged BRD4 BD2 100 nM, biotinylated H4 (1-21) K5/8/12/16 tetra-acetylated peptide 100 nM, compounds listed under IC50 range headings
T1 construct: 333-460 were cloned, expressed, and purified to homogeneity
Procedure: The binding of Example compounds to BRD4 Bromodomain 1 and BRD4 Bromodomain 2 was assessed using 384-well AlphaScreen assay technology. His-epitope tagged BRD4 BD144-168 and BRD4 BD2333-460 were cloned, expressed, and purified to homogeneity. BRD4 BD1 and BRD4 BD2 binding and inhibition was assessed by monitoring the engagement of biotinylated Histone H4 (1-21) K5/8/12/16 tetra-acetylated peptide with the targets using the AlphaScreen technology (PerkinElmer). Specifically, in a 384-well black or white flat bottom plate, BRD4 BD1 (50 nM final) or BRD4 BD2 (100 nM final) was combined with peptide (50 nM final for BD1 or 100 nM final for BD2) in 50 mM HEPES (pH 7.3), 100 mM NaCl, 0.1% (w/v) BSA, and 0.01% (w/v) Triton X-100 either in the presence of DMSO (final 1.25% DMSO) or compound dilution series in DMSO. Alpha streptavidin donor beads and Nickel-chelate acceptor beads were added to a final concentration of 10 μg/ml each. After a minimum of 1 hour equilibration, plates were read on a BMG PHERAstar FS multi-label reader (BMG LabTech). The half maximal inhibitory concentration (IC50) values were calculated using IDBS Activity Base software with a four parameter logistic curve fit by the equation y=A+((B−A)/(1+((C/x)^D))), wherein A denotes the bottom plateau of the curve, B denotes the top plateau of the curve, C denotes the x value at the middle of the curve, D denotes the slope factor, x denotes the original known x values, and y denotes the original known y values. Data was fitted using the Levenburg Marquardt algorithm.

[2] = molecular target: T2, BRD4 Bromodomain 1 (BRD4 BD1) (Homo sapiens, UniProt O60885); test: AlphaScreen binding assay, BRD4 BD1; conditions: His-tagged BRD4 BD1 50 nM, biotinylated H4 (1-21) K5/8/12/16 tetra-acetylated peptide 50 nM, compounds listed under IC50 range headings
T2 construct: 44-168 and BRD4 BD2
How it was run: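 An AlphaScreen competition format was used with His-BRD4 BD1 or BD2 and biotin-H4 K5/8/12/16-acetyl peptide, each at matched final levels of 50 nM (BD1) or 100 nM (BD2). Incubation in HEPES/NaCl buffer with 0.1% BSA and 0.01% Triton X-100 ran ≥1 h before IC50 determination.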

SMILES	IC50 [1] [µM]	IC50 [2] [µM]
CC(=O)N1c2ccc(-c3ccc(S(C)(=O)=O)cc3)c(Oc3ccccc3)c2CCC1C (racemic) [I-111, rac-1-(2-methyl-6-(4-(methylsulfonyl)phenyl)-5-phenoxy-3,4-dihydroquinolin-1(2H)-yl)ethanone]	< 0.05	1 to 10
COC(=O)N1c2ccc(-c3cnn(CCO)c3)c(OCC(=O)N(C)C)c2CC[C@@H]1C [I-3, (S)-methyl 5-(2-(dimethylamino)-2-oxoethoxy)-6-(1-(2-hydroxyethyl)-1H-pyrazol-4-yl)-2-methyl-3,4-dihydroquinoline-1(2H)-carboxylate]	0.05 to 0.5	1 to 10
CCNC(=O)COc1c(-c2cnn(C3CC3)c2)ccc2c1CC[C@H](C)N2C(C)=O [I-4, (S)-2-(1-acetyl-6-(1-cyclopropyl-1H-pyrazol-4-yl)-2-methyl-1,2,3,4-tetrahydroquinolin-5-yloxy)-N-ethylacetamide]	0.05 to 0.5	1 to 10
CC(=O)N1c2ccc(-c3cnn(C4CC4)c3)c(OCCF)c2CC[C@@H]1C [I-5, (S)-1-(6-(1-cyclopropyl-1H-pyrazol-4-yl)-5-(2-fluoroethoxy)-2-methyl-3,4-dihydroquinolin-1(2H)-yl)ethanone]	0.05 to 0.5	1 to 10
CC(=O)N1c2ccc(-c3cnn(C4CC4)c3)c(OCC(=O)N(C)C3CC3)c2CC[C@@H]1C [I-6, (S)-2-(1-acetyl-6-(1-cyclopropyl-1H-pyrazol-4-yl)-2-methyl-1,2,3,4-tetrahydroquinolin-5-yloxy)-N-cyclopropyl-N-methylacetamide]	≥ 0.5	1 to 10
COC(=O)N1c2ccc(-c3cnn(C4CC4)c3)c(OCC(F)(F)F)c2CC[C@@H]1C [I-9, (S)-methyl 6-(1-cyclopropyl-1H-pyrazol-4-yl)-2-methyl-5-(2,2,2-trifluoroethoxy)-3,4-dihydroquinoline-1(2H)-carboxylate]	≥ 0.5	≥ 10
COC(=O)N1c2ccc(-c3cnn(C4CC4)c3)c(OCC(F)F)c2CC[C@@H]1C [I-10, (S)-methyl 6-(1-cyclopropyl-1H-pyrazol-4-yl)-5-(2,2-difluoroethoxy)-2-methyl-3,4-dihydroquinoline-1(2H)-carboxylate]	0.05 to 0.5	1 to 10
COC(=O)N1c2ccc(-c3cnn(C4CC4)c3)c(OCC(C)(F)F)c2CC[C@@H]1C [I-12, (S)-methyl 6-(1-cyclopropyl-1H-pyrazol-4-yl)-5-(2,2-difluoropropoxy)-2-methyl-3,4-dihydroquinoline-1(2H)-carboxylate]	≥ 0.5	≥ 10
COC(=O)N1c2ccc(-c3cnn(C4CC4)c3)c(OCC(C)(C)F)c2CC[C@@H]1C [I-16, (S)-methyl 6-(1-cyclopropyl-1H-pyrazol-4-yl)-5-(2-fluoro-2-methylpropoxy)-2-methyl-3,4-dihydroquinoline-1(2H)-carboxylate]	0.05 to 0.5	1 to 10
COC(=O)N1c2ccc(-c3cnn(C4CC4)c3)c(OCCN3CCCC3=O)c2CC[C@@H]1C [I-25, (S)-methyl 6-(1-cyclopropyl-1H-pyrazol-4-yl)-2-methyl-5-(2-(2-oxopyrrolidin-1-yl)ethoxy)-3,4-dihydroquinoline-1(2H)-carboxylate]	0.05 to 0.5	1 to 10
COC(=O)N1c2ccc(-c3cnn(C4CC4)c3)c(OCC(=O)N3CCOCC3)c2CC[C@@H]1C [I-26, (S)-methyl 6-(1-cyclopropyl-1H-pyrazol-4-yl)-2-methyl-5-(2-morpholino-2-oxoethoxy)-3,4-dihydroquinoline-1(2H)-carboxylate]	0.05 to 0.5	1 to 10
COC(=O)N1c2ccc(-c3cnn(C4CC4)c3)c(OCS(N)(=O)=O)c2CC[C@@H]1C [I-28, (S)-methyl 6-(1-cyclopropyl-1H-pyrazol-4-yl)-2-methyl-5-(sulfamoylmethoxy)-3,4-dihydroquinoline-1(2H)-carboxylate]	≥ 0.5	1 to 10
COC(=O)N1c2ccc(-c3cnn(C4CC4)c3)c(OC3CC(F)(F)C3)c2CC[C@@H]1C [I-33, (S)-methyl 6-(1-cyclopropyl-1H-pyrazol-4-yl)-5-(3,3-difluorocyclobutoxy)-2-methyl-3,4-dihydroquinoline-1(2H)-carboxylate]	≥ 0.5	1 to 10
CC(=O)N1c2ccc(-c3cnn(C4CC4)c3)c(OCC(C)(F)F)c2CC[C@@H]1C [I-37, (S)-1-(6-(1-cyclopropyl-1H-pyrazol-4-yl)-5-(2,2-difluoropropoxy)-2-methyl-3,4-dihydroquinolin-1(2H)-yl)ethanone]	0.05 to 0.5	1 to 10
CC(=O)N1c2ccc(-c3cnn(C4CC4)c3)c(OCCC(F)(F)F)c2CC[C@@H]1C [I-41, (S)-1-(6-(1-cyclopropyl-1H-pyrazol-4-yl)-2-methyl-5-(3,3,3-trifluoropropoxy)-3,4-dihydroquinolin-1 (2H)-yl)ethanone]	0.05 to 0.5	1 to 10
CC(=O)N1c2ccc(-c3cnn(C4CC4)c3)c(OCS(N)(=O)=O)c2CC[C@@H]1C [I-45, (S)-(1-acetyl-6-(1-cyclopropyl-1H-pyrazol-4-yl)-2-methyl-1,2,3,4-tetrahydroquinolin-5-yloxy)methanesulfonamide]	≥ 0.5	≥ 10

Now from value to compound:

IC50 [1] [µM]	IC50 [2] [µM]	SMILES
0.05 to 0.5	≥ 10	CC(=O)N1c2cccc(Oc3ccccc3)c2CCC1C (racemic) [I-112, rac-1-(2-methyl-5-phenoxy-3,4-dihydroquinolin-1(2H)-yl)ethanone]
0.05 to 0.5	1 to 10	CC(=O)N1c2ccc(-c3cnn(CCO)c3)c(OCC(=O)N(C)C)c2CC[C@@H]1C [I-2, (S)-2-(1-acetyl-6-(1-(2-hydroxyethyl)-1H-pyrazol-4-yl)-2-methyl-1,2,3,4-tetrahydroquinolin-5-yloxy)-N,N-dimethylacetamide]
0.05 to 0.5	1 to 10	COC(=O)N1c2ccc(-c3cnn(C4CC4)c3)c(OC(CF)CF)c2CC[C@@H]1C [I-15, (S)-methyl 6-(1-cyclopropyl-1H-pyrazol-4-yl)-5-(1,3-difluoropropan-2-yloxy)-2-methyl-3,4-dihydroquinoline-1(2H)-carboxylate]
0.05 to 0.5	1 to 10	COC(=O)N1c2ccc(-c3cnn(C4CC4)c3)c(OC(C)(C)C(N)=O)c2CC[C@@H]1C [I-18, (S)-methyl 5-(1-amino-2-methyl-1-oxopropan-2-yloxy)-6-(1-cyclopropyl-1H-pyrazol-4-yl)-2-methyl-3,4-dihydroquinoline-1(2H)-carboxylate]
0.05 to 0.5	≥ 10	CCNC(=O)COc1c(-c2cnn(C3CC3)c2)ccc2c1CC[C@H](C)N2C(=O)OC [I-21, (S)-methyl 6-(1-cyclopropyl-1H-pyrazol-4-yl)-5-(2-(ethylamino)-2-oxoethoxy)-2-methyl-3,4-dihydroquinoline-1(2H)-carboxylate]
< 0.05	1 to 10	COC(=O)N1c2ccc(-c3cnn(C4CC4)c3)c(OCCN3CCCS3(=O)=O)c2CC[C@@H]1C [I-27, methyl (2S)-6-(1-cyclopropyl-1H-pyrazol-4-yl)-5-[2-(1,1-dioxo-1λ^6,2-thiazolidin-2-yl)ethoxy]-2-methyl-1,2,3,4-tetrahydroquinoline-1-carboxylate]
0.05 to 0.5	1 to 10	COC(=O)N1c2ccc(-c3cnn(C4CC4)c3)c(OCC3(CO)COC3)c2CC[C@@H]1C [I-32, (S)-methyl 6-(1-cyclopropyl-1H-pyrazol-4-yl)-5-((3-(hydroxymethyl)oxetan-3-yl)methoxy)-2-methyl-3,4-dihydroquinoline-1(2H)-carboxylate]
0.05 to 0.5	1 to 10	CC(=O)N1c2ccc(-c3cnn(C4CC4)c3)c(OC(CF)CF)c2CC[C@@H]1C [I-38, (S)-1-(6-(1-cyclopropyl-1H-pyrazol-4-yl)-5-(1,3-difluoropropan-2-yloxy)-2-methyl-3,4-dihydroquinolin-1(2H)-yl)ethanone]
0.05 to 0.5	1 to 10	CC(=O)N1c2ccc(-c3cnn(C4CC4)c3)c(OC(C)(C)C(N)=O)c2CC[C@@H]1C [I-40, (S)-2-(1-acetyl-6-(1-cyclopropyl-1H-pyrazol-4-yl)-2-methyl-1,2,3,4-tetrahydroquinolin-5-yloxy)-2-methylpropanamide]
0.05 to 0.5	1 to 10	CC(=O)N1c2ccc(-c3cnn(C4CC4)c3)c(OCCC3COC3)c2CC[C@@H]1C [I-47, (S)-1-(6-(1-cyclopropyl-1H-pyrazol-4-yl)-2-methyl-5-(2-(oxetan-3-yl)ethoxy)-3,4-dihydroquinolin-1(2H)-yl)ethanone]
